Source: patent US8580763B2, “2, 6-dinitrogen-containing substituted purine derivatives, the preparation and uses thereof” (Zhanggui Wu, priority 2007, dated 2013)
pIC50: −log10 of the molar value.

Assays:
[1] = test system: non-small cell lung cancer; assay: anticancer activity in vitro (SRB, MTT), non-small cell lung cancer; assay type: cell-based; conditions: action time about 72 h
Procedure: (§1) Antitumor activity tests in vitro and in vivo are carried out to the parital compounds prepared from the above examples. Wherein the method of SRB, MTT is used in vitro, and the action time is about 72 h. Inhibitory effects of the compounds on the growth of mouse Conlon26 cancer are shown in Table 2, inhibitory effects of the compounds on the growth of mouse S180 sarcoma are shown in Table 3.

colon cancer HT-29 = assay: anticancer activity in vitro (SRB, MTT), colon cancer HT-29; assay type: cell-based; conditions: Homo sapiens, action time about 72 h
Procedure: as §1

[2] = test system: human liver cancer Bel-7402; assay: anticancer activity in vitro (SRB, MTT), human liver cancer Bel-7402; assay type: cell-based; conditions: action time about 72 h
Procedure: as §1

lymph cancer Ramos = assay: anticancer activity in vitro (SRB, MTT), lymph cancer Ramos; assay type: cell-based; conditions: Homo sapiens, action time about 72 h
Procedure: as §1

mouse Colon26 cancer = assay: inhibitory effects on the growth of mouse Colon26 cancer in vivo; conditions: for End body weight / Inhibition rate / Tumor removed body weight / Tumor weight / Initial body weight: Colon26 mice; for Initial body weight: baseline
Procedure: as §1

mouse S180 sarcoma = assay: inhibitory effects on the growth of mouse S180 sarcoma in vivo; conditions: for End body weight / Inhibition rate / Tumor removed body weight / Tumor weight / Initial body weight: S180 mice; for Initial body weight: baseline
Procedure: as §1

[3] = test system: four different cancer cells; assay: antitumor activity in vitro, summary over the four cancer cells of Table 1; assay type: cell-based; conditions: summary of Table 1
Procedure: as §1
Compared with compound I, compound XX has better antitumor effects.

| pIC50 [1] | pIC50 (colon cancer HT-29) | pIC50 [2] | pIC50 (lymph cancer Ramos) | SMILES | End body weight (mouse Colon26 cancer; 100 mg/kg p.o.) [g] | Inhibition rate (mouse Colon26 cancer; 100 mg/kg p.o.) [%] | Tumor removed body weight (mouse Colon26 cancer; 100 mg/kg p.o.) [g] | Tumor weight (mouse Colon26 cancer; 100 mg/kg p.o.) [g] | Initial body weight (mouse Colon26 cancer; 100 mg/kg p.o.) [g] | End body weight (mouse Colon26 cancer; 150 mg/kg p.o.) [g] | Inhibition rate (mouse Colon26 cancer; 150 mg/kg p.o.) [%] | Tumor removed body weight (mouse Colon26 cancer; 150 mg/kg p.o.) [g] | Tumor weight (mouse Colon26 cancer; 150 mg/kg p.o.) [g] | Initial body weight (mouse Colon26 cancer; 150 mg/kg p.o.) [g] | End body weight (mouse S180 sarcoma; 100 mg/kg p.o.) [g] | Inhibition rate (mouse S180 sarcoma; 100 mg/kg p.o.) [%] | Tumor removed body weight (mouse S180 sarcoma; 100 mg/kg p.o.) [g] | Tumor weight (mouse S180 sarcoma; 100 mg/kg p.o.) [g] | Initial body weight (mouse S180 sarcoma; 100 mg/kg p.o.) [g] | antitumor activity to four different cancer cells (in words) [3] | other results |
| --- | --- | --- | --- | --- | --- | --- | --- | --- | --- | --- | --- | --- | --- | --- | --- | --- | --- | --- | --- | --- | --- |
| 7.30 | 6.42 | 7.70 | 6.72 | COc1cccc2c1C(=O)c1c(O)c3c(c(O)c1C2=O)C[C@@](O)(C(=O)CO)C[C@@H]3O[C@H]1C[C@H](N)[C@H](O)[C@H](C)O1 [ADR, adriamycin, reference compound] | – | – | – | – | – | – | – | – | – | – | – | – | – | – | – | – | – |
| – | – | – | – | O=P1(N(CCCl)CCCl)NCCCO1 (stereo not shown) [CTX, cyclophosphamide, reference compound] | – | – | – | – | – | – | – | – | – | – | – | – | – | – | – | – | End body weight (mouse Colon26 cancer; 30 mg/kg i.p.): 20.33 g; Inhibition rate (mouse Colon26 cancer; 30 mg/kg i.p.): 78.14%; Tumor removed body weight (mouse Colon26 cancer; 30 mg/kg i.p.): 19.93 g; Tumor weight (mouse Colon26 cancer; 30 mg/kg i.p.): 0.40 g; Initial body weight (mouse Colon26 cancer; 30 mg/kg i.p.): 20.03 g; End body weight (mouse S180 sarcoma; 30 mg/kg i.p.): 20.31 g; Inhibition rate (mouse S180 sarcoma; 30 mg/kg i.p.): 79.82%; Tumor removed body weight (mouse S180 sarcoma; 30 mg/kg i.p.): 19.85 g; Tumor weight (mouse S180 sarcoma; 30 mg/kg i.p.): 0.46 g; Initial body weight (mouse S180 sarcoma; 30 mg/kg i.p.): 19.65 g |
| 5.64 | 6.42 | 6.17 | 6.17 | c1cnc2ccc(Nc3nc(N4CCCC4)c4nc[nH]c4n3)cc2c1 [Compound IV] | 19.32 | 33.31 | 18.10 | 1.22 | 20.09 | 18.41 | 54.45 | 17.57 | 0.83 | 20.10 | 20.77 | 31.95 | 19.22 | 1.55 | 18.99 | the best | End body weight (mouse S180 sarcoma; 200 mg/kg p.o.): 19.12 g; Inhibition rate (mouse S180 sarcoma; 200 mg/kg p.o.): 55.37%; Tumor removed body weight (mouse S180 sarcoma; 200 mg/kg p.o.): 18.10 g; Tumor weight (mouse S180 sarcoma; 200 mg/kg p.o.): 1.02 g; Initial body weight (mouse S180 sarcoma; 200 mg/kg p.o.): 19.49 g |
| 5.44 | 5.06 | 5.80 | 5.24 | C=CCNc1nc(Nc2ccc3ncccc3c2)nc2[nH]cnc12 [Compound I] | 18.15 | 62.25 | 17.46 | 0.69 | 19.47 | 17.96 | 76.52 | 17.26 | 0.43 | 21.10 | 18.32 | 68.93 | 17.61 | 0.71 | 19.74 | higher antitumor activity | inhibitory effects on mouse Colon26 cancer (in words) (mouse Colon26 cancer; 100 mg/kg dosage): better inhibitory effects; inhibitory effects on mouse S180 sarcoma (in words) (mouse S180 sarcoma; 100 mg/kg dosage): better inhibitory effects; End body weight (mouse S180 sarcoma; 200 mg/kg p.o.): 16.04 g; Inhibition rate (mouse S180 sarcoma; 200 mg/kg p.o.): 70.21%; Tumor removed body weight (mouse S180 sarcoma; 200 mg/kg p.o.): 15.36 g; Tumor weight (mouse S180 sarcoma; 200 mg/kg p.o.): 0.68 g; Initial body weight (mouse S180 sarcoma; 200 mg/kg p.o.): 18.97 g |
| 5.18 | 5.40 | 6.64 | 5.90 | CNc1nc(Nc2ccc3ncccc3c2)nc2[nH]cnc12 [Compound VII] | – | – | – | – | – | – | – | – | – | – | – | – | – | – | – | higher antitumor activity | – |
| 5.77 | 5.71 | 5.46 | 5.52 | C=CCN(CC=C)c1nc(Nc2ccc3ncccc3c2)nc2[nH]cnc12 [Compound XIII] | – | – | – | – | – | – | – | – | – | – | – | – | – | – | – | higher antitumor activity | – |
| – | – | – | – | CN1CCN(c2nc(Nc3ccc4ncccc4c3)nc3[nH]cnc23)CC1 [Compound XII] | 19.16 | 35.18 | 17.98 | 1.19 | 19.06 | 18.28 | 50.16 | 17.36 | 0.91 | 19.16 | 22.58 | 28.19 | 20.94 | 1.63 | 19.22 | – | End body weight (mouse S180 sarcoma; 200 mg/kg p.o.): 21.35 g; Inhibition rate (mouse S180 sarcoma; 200 mg/kg p.o.): 46.96%; Tumor removed body weight (mouse S180 sarcoma; 200 mg/kg p.o.): 20.14 g; Tumor weight (mouse S180 sarcoma; 200 mg/kg p.o.): 1.21 g; Initial body weight (mouse S180 sarcoma; 200 mg/kg p.o.): 19.46 g |
| 5.88 | 5.65 | 5.34 | 5.53 | c1cnc2ccc(Nc3nc(N4CCCCC4)c4nc[nH]c4n3)cc2c1 [Compound XIV] | – | – | – | – | – | – | – | – | – | – | – | – | – | – | – | higher antitumor activity | – |
| 5.47 | 5.37 | 5.26 | 5.54 | CCN1CCN(c2nc(Nc3ccc4ncccc4c3)nc3[nH]cnc23)CC1 [Compound XV] | – | – | – | – | – | – | – | – | – | – | – | – | – | – | – | higher antitumor activity | – |
